The values below come from PMC5913971, “A Novel Piperazine-Based Drug Lead for Cryptosporidiosis from the Medicines for Malaria Venture Open-Access Malaria Box” (Antimicrobial Agents and Chemotherapy, 2018).

As usually defined, the EC50 is the concentration that produces a half-maximal response. The term EC90 denotes the point of the concentration-response curve where the effect stands at 90%.

In brackets after ≈: the same amount, converted by molar mass.

Data set [1] has as its system C. parvum Iowa isolate. Nature of the data set: IFN-γ knockout mouse model of acute cryptosporidiosis. The class given is in vivo, C57BL/6 IFN-γ−/− mice. The conditions noted are these: 30 mg/kg twice daily on days 4, 5, 6 postinfection. As to the method: All interferon gamma (IFN-γ) knockout mouse studies were performed in compliance with animal care guidelines and were approved by the Explora BioLabs (San Diego, CA) Institutional Animal Care and Use Committee. Four-week-old female C57BL/6 IFN-γ^−/− mice with normal flora were purchased from The Jackson Laboratory and were acclimated for 3 days prior to infection by oral gavage with 10^6 C. parvum Iowa isolate oocysts (Sterling Parasitology Laboratory, University of Arizona) suspended in sterile distilled water. At various times postinfection, mice were treated with the compound vehicle alone, clofazimine (used as a positive control), or MMV665917. As described previously, fecal parasite shedding was quantified at various times postinfection by isolating oocysts using a sucrose gradient centrifugation method ([39]), followed by staining for immunofluorescence microscopy using a fluorescein isothiocyanate-conjugated mouse anti-Cryptosporidium antibody (0.25 μg per sample) and analysis with a Guava easyCyte flow cytometer and CytoSoft data acquisition and analysis software (version 5.3; Guava Technologies, Inc.). Oocyst counts per milliliter of sample were exported to Excel (Microsoft Corp.) and were normalized to counts per milligram of feces. Final data analysis and graphing were carried out using GraphPad Prism software (version 6.01).

The test system of data set [2] is C. parvum Iowa isolate. Nature of the data set: Immunofluorescence assay for C. parvum growth inhibition in HCT-8 cells. The format is cell-based, Cryptosporidium parvum. As to conditions: Cryptosporidium parvum, inside HCT-8 cells, 48 h incubation. Here is the method: Inhibition of C. parvum growth was measured as described previously ([20]). Oocysts were excysted by treatment with 10 mM hydrochloric acid (10 min at 37°C), followed by exposure to 2 mM sodium taurocholate (Sigma-Aldrich) in PBS for 10 min at 16°C. Excysted oocysts were then added to >95% confluent HCT-8 cell monolayers in 384-well plates at a concentration of 5,500 Iowa isolate oocysts per well. For C. parvum field isolates, the inoculum required to yield an infection level similar to that produced by 5,500 Iowa isolate oocysts per well was determined and was used for subsequent assays of parasite inhibition. Compounds were added just before or 3 h after infection, and assay plates were incubated for 48 h postinfection at 37°C under 5% CO2. Wells were then washed three times with PBS containing 111 mM D-galactose, fixed with 4% paraformaldehyde in PBS for 15 min at room temperature, permeabilized with 0.25% Triton X-100 for 10 min at 37°C, washed three times with PBS with 0.1% Tween 20, and blocked with 4% bovine serum albumin (BSA) in PBS for 2 h at 37°C or 4°C overnight. Parasitophorous vacuoles were stained with 1.33 μg/ml of fluorescein-labeled Vicia villosa lectin (Vector Laboratories) diluted in 1% BSA in PBS with 0.1% Tween 20 for 1 h at 37°C, followed by the addition of Hoechst 33258 (AnaSpec) at a final concentration of 0.09 mM diluted in water for another 15 min at 37°C. Wells were then washed five times with PBS containing 0.1% Tween 20. A Nikon Eclipse TE2000 epifluorescence microscope with an automated stage was programmed using NIS-Elements Advanced Research software (Nikon, USA) to focus on the center of each well and take a 3-by-3 composite image using an EXi Blue fluorescence microscopy camera (QImaging, Canada) with a 20× objective (numerical aperture, 0.45). Nucleus and parasite images were exported separately as .tif files and were analyzed using macros developed on the ImageJ platform (National Institutes of Health) ([20]). The only modification from the published macro used to count parasites was that the lower size threshold for parasites was decreased from 16.5 to 4 pixels (1 pixel = 0.65 μm). Graphs were plotted, and half-maximal effective concentration (EC50) and 90% effective concentration (EC90) values were calculated using GraphPad Prism software, version 6.01. For every C. parvum field isolate experiment, a dose-response experiment against the C. parvum Iowa isolate was performed simultaneously as a reference.

Details of data set [3]: method as in PMID 27467575. As to conditions: mouse; cited from earlier work.
Details of data set [4]: method as in PMID 27467575. As to conditions: pH 7.4; cited from earlier work.
The test system of another data set is HCT-8 cells. Briefly: Host cell toxicity assay (CellTiter AQueous). The class given is cell-based, Human. As to the method: Host cell toxicity was measured as described previously ([20]). HCT-8 cells were grown to >95% confluence in 384-well plates. Increasing concentrations of compounds were added, and assay plates were incubated at 37°C under 5% CO2 for 48 h. The corner wells of each plate were trypsinized to remove cells and were used as blanks for measuring absorbance at 490 nm. Cell proliferation was measured using the CellTiter AQueous assay kit (Promega, USA) according to the manufacturer's instructions and was expressed as the percentage of proliferation with the vehicle control (DMSO). GraphPad Prism software, version 6.01, was used to plot graphs and calculate the concentration that inhibits 50% of host cell proliferation relative to that with the DMSO control (50% toxic concentration [TC50]). A selectivity index (SI) was calculated as the ratio of the […].

A further data set has as its system zebrafish. Also noted: method as in PMID 27467575. The conditions noted are these: cited from earlier work.
In another data set the test system is hERG. Also noted: method as in PMID 27467575. As to conditions: at 11 μM; cited from earlier work.
A further data set has as its system C. hominis TU502. Briefly: Cryptosporidium hominis growth inhibition assay (1,536-well). The class given is cell-based. The conditions noted are these: HCT-8 cells, read-out: EC50 against C. hominis (isolate TU502). Here is the method:
Cryptosporidium hominis growth inhibition assays were performed at the California Institute for Biomedical Research (Calibr), San Diego, CA, using a slightly modified immunofluorescence assay to enable automated compound handling and the use of 1,536-well microtiter plates ([19]). The HCT-8 culture medium was replaced with RPMI 1640 medium supplemented with 2% heat-inactivated horse serum, 100 U/ml penicillin, and […] streptomycin 24 h prior to infection with either C. hominis or the C. parvum Iowa isolate, used as a reference. […] Imaging was performed using a CellInsight CX5 High Content screening platform (Thermo Scientific) with a 10× objective and acquisition of one microscopic field per well. Images were processed using HCS Studio Scan software, and the selected-object count (HCT-8 cells) and spot count (C. hominis) were analyzed in Genedata Screener (version 13.0; Standard). Dose-response curves and EC values were calculated using the Smart Fit function of Genedata Analyzer.

Data set [5] has as its system 11 species of bacteria, 12 protozoa, and 7 helminths. Details: method as in PMID 27467575. As to conditions: cited from earlier work.

In the case of `O=C(Nc1ccc(Cl)cc1)N1CCN(c2ccc3nncn3n2)CC1` [MMV665917, Clc1ccc(NC(=O)N2CCN(CC2)c3ccc4nncn4n3)cc1], the “efficacy in IFN-γ KO mouse model of acute infection” value with C. parvum Iowa isolate [1] is on record as “highly efficacious”. In addition, the EC50 worked out at 2.1 µM in the data set with C. parvum Iowa isolate [2] (Fig. 1, read-out: EC50, anti-C. parvum dose response) and 4.05 µM in the data set on C. hominis TU502. For the same compound, in the data set with C. parvum Iowa isolate [2] (Fig. 1B, read-out: EC90, anti-C. parvum dose response), the 90% effect concentration (EC90) came out at 5.1 µM. The plasma protein binding in data set [3] is given as 83.3%. In addition, the kinetic solubility in data set [4] was 18 µM (≈ 6.44 µg/mL). Also, the “TC50, host HCT-8 cell toxicity” value with HCT-8 cells (48 h, CellTiter AQueous) was over 100 µM. Moreover, the “selectivity index (SI)” value with HCT-8 cells (HCT-8 TC50 versus C. parvum EC50) is on record as over 47. In addition, the “toxic effect on host HCT-8 cell proliferation” value with HCT-8 cells (concentrations as high as 100 μM) is “no toxic effect”. Besides, the toxicity to zebrafish result with zebrafish was “not toxic”. Moreover, the hERG inhibition in the data set with hERG is 58%. Besides, in data set [5], the “activity in numerous biological assays (bacteria, protozoa, helminths)” value was “inactive”.
